Experimental data from US20230346827A1 (priority 2020, published 2023).

Key:
[1] = in vivo; cited from earlier work
[2] = molecular target: T1, oligomeric amyloid-β / PrP^c interaction (Homo sapiens, UniProt P04156); format: binding
[3] = molecular target: T1, oligomeric amyloid-β / PrP^c interaction; conditions: cited from earlier work
[4] = tested on: human purified monocytes; assay: Stimulated IL-6 release from human purified monocytes (ELISA); format: cell-based; conditions: 24 h, LMW-DS 60-600 µg/ml, heparin 2.0-20 µg/ml, dexamethasone 3.0 µM
Description: Peripheral blood mononuclear cells (PBMC) were isolated from healthy donors through Ficoll-Paque PLUS (GE Healthcare; 11778538) density centrifugation. Monocytes were purified using the EasySep™ human monocyte enrichment kit (StemCell) that purifies monocytes ‘untouched’ to maintain their phenotype.
Monocytes were cultured in the absence (unstimulated PBS vehicle controls) or presence of stimulation (LPS or peptidoglycan) in the absence (vehicle) or presence of LMW-DS (Tikomed AB, Viken, Sweden, WO 2016/076780; three concentrations; top concentration 600 µg/ml, 200 µg/ml and 60 µg/ml), heparin (2.0, 6.0 or 20 µg/ml; equivalent to 0.406, 1.218 and 4.06 units/ml; Sigma Aldrich) or dexamethasone (3.0 µM; Sigma Aldrich) for 24 hours at 37° C., 5% CO2. Following centrifugation, cell culture supernatants were removed and stored at -20° C. awaiting analysis for IL-6 by ELISA. Levels of IL-6 were quantified in the supernatant by ELISA (R&D systems) according to manufacturer’s instructions.

[5] = tested on: mouse model of muscle atrophy; conditions: after 2 weeks of treatment; cited from earlier work

Substance: adalimumab
- half-life [1]: around 14 days

Substance: certolizumab
- half-life [1]: around 14 days

Substance: dextran
- competition for the protein-protein interaction between oligomeric amyloid-β and PrP^c [2]: failed to compete appreciably

Substance: dextran sulphate sodium salt [DSSS]
- Competable binding (%) [2]: 101±2%
- Hill coefficient [2]: 1.51±0.06
- IC50 [2]: 0.62 ± 0.07 µg/mL
- effective concentrations to compete with the amyloid-β / PrP^c interaction [3]: low µg/ml range

Substance: heparin [reference compound]
- LPS-stimulated IL-6 release ([4]; LPS 0.01 ng/ml): concentration dependent statistically significant enhancement
- peptidoglycan-stimulated IL-6 release ([4]; peptidoglycan 30 ng/ml): did not reach statistical significance

Substance: infliximab
- half-life [1]: around 14 days

Substance: recombinant HGF: recombinant hepatocyte growth factor
- increase in muscle mass [5]: 18%
